Experimental data published in patent US20100267561A1, “HERBICIDAL PYRIDAZINONE DERIVATIVES” (priority 2007, published 2010).
Where two headings read alike, the source gives them in different places.

What was measured:
Format in all cases: in vivo
[1] = test system: barnyardgrass (Echinochloa crus-galli); assay: Test A pre-/postemergence plant response; conditions: Echinochloa crus-galli, 240 h, read-out: Plant response rating, Barnyardgrass; for pest or weed control at 31 g/ha: 31 g ai/ha; for pest or weed control at 125 g/ha: 125 g ai/ha
Outline: (§1)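 Seeds in loam soil/sand blend treated preemergence by directed soil spray, with simultaneous postemergence spray on 2–10 cm plants at one- to two-leaf stage; compounds in non-phytotoxic solvent with surfactant. Injury visually rated versus untreated controls after about 10 days in greenhouse, 0 (no effect) to 100 (complete control).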

[2] = test system: pigweed (Amaranthus retroflexus); assay: Test A pre-/postemergence plant response; conditions: Amaranthus retroflexus, 240 h, read-out: Plant response rating, Pigweed; for pest or weed control at 31 g/ha: 31 g ai/ha; for pest or weed control at 125 g/ha: 125 g ai/ha
Outline: as §1

[3] = test system: wheat (Triticum aestivum); assay: Test A pre-/postemergence plant response; conditions: Triticum aestivum, 240 h, read-out: Plant response rating, Wheat; for plant injury at 31 g/ha: 31 g ai/ha; for plant injury at 125 g/ha: 125 g ai/ha
Outline: as §1

[4] = test system: corn (Zea mays); assay: Test A pre-/postemergence plant response; conditions: Zea mays, 240 h; for Corn plant response rating (crop injury, 0 = no effect, 100 = complete kill) at 31 g/ha: 31 g ai/ha; for Corn plant response rating (crop injury, 0 = no effect, 100 = complete kill) at 125 g/ha: 125 g ai/ha
Outline: as §1

[5] = test system: giant foxtail (Setaria faberi); assay: Test A pre-/postemergence plant response; conditions: Setaria faberi, 240 h, read-out: Plant response rating, Foxtail, Giant; for pest or weed control at 31 g/ha: 31 g ai/ha; for pest or weed control at 125 g/ha: 125 g ai/ha
Outline: as §1

[6] = test system: large crabgrass (Digitaria sanguinalis); assay: Test A pre-/postemergence plant response; conditions: Digitaria sanguinalis, 240 h, read-out: Plant response rating, Crabgrass, Large; for pest or weed control at 31 g/ha: 31 g ai/ha; for pest or weed control at 125 g/ha: 125 g ai/ha
Outline: as §1

[7] = test system: barnyardgrass (Echinochloa crus-galli); assay: Test B flooded paddy test plant response; conditions: Echinochloa crus-galli, read-out: Plant response rating, Barnyardgrass
Outline: (§2)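 2-leaf plants; pots flooded 3 cm above soil; compound added to paddy water; depth maintained. Greenhouse 13–15 d. Visual rating vs controls, 0 (no effect) to 100 (complete control); dash = no result.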

[8] = test system: umbrella sedge (Cyperus difformis); assay: Test B flooded paddy test plant response; conditions: Cyperus difformis, read-out: Plant response rating, Sedge, Umbrella
Outline: as §2

[9] = test system: ducksalad (Heteranthera limosa); assay: Test B flooded paddy test plant response; conditions: Heteranthera limosa, read-out: Plant response rating, Ducksalad
Outline: as §2

[10] = test system: rice (Oryza sativa); assay: Test B flooded paddy test plant response; conditions: Oryza sativa, read-out: Plant response rating, Rice
Outline: as §2

[11] = post-emergence, Postemergence, 0 to 100 scale (0 no effect, 100 complete control)
[12] = post-emergence, Postemergence, 0 to 100 scale, 0 no effect, 100 complete control
[13] = pre-emergence, Preemergence, 0 to 100 scale, 0 is no effect, 100 is complete control
[14] = pre-emergence, Preemergence, 0 to 100 scale (0 no effect, 100 complete control)
[15] = Flood (flooded paddy test), 62 g ai/ha, scale 0 to 100, 0 no effect, 100 complete control
[16] = Flood (flooded paddy test), 125 g ai/ha, scale 0 to 100, 0 no effect, 100 complete control
[17] = Flood (flooded paddy test), 250 g ai/ha, scale 0 to 100, 0 no effect, 100 complete control
[18] = Flood, 31 g ai/ha, scale 0 to 100

## Cc1cc(-c2ccc(Br)cc2)nn1-c1c(OC(=O)C2CC2)cnn(C(=O)C2CC2)c1=O [Compound 80, 5-[3-(4-bromophenyl)-5-methyl-1H-pyrazol-1-yl]-1-(cyclopropylcarbonyl)-1,6-dihydro-6-oxo-4-pyridazinyl cyclopropanecarboxylate]
[1]; [11]
  pest or weed control at 31 g/ha: 100%
[1]; [12]
  pest or weed control at 125 g/ha: 100%
[1]; [13]
  pest or weed control at 31 g/ha: 0%
[1]; [14]
  pest or weed control at 125 g/ha: 100%
[2]; [11]
  pest or weed control at 31 g/ha: 0%
[2]; [12]
  pest or weed control at 125 g/ha: 0%
[2]; [13]
  pest or weed control at 31 g/ha: 0%
[2]; [14]
  pest or weed control at 125 g/ha: 0%
[3]; [11]
  plant injury at 31 g/ha: 30%
[3]; [12]
  plant injury at 125 g/ha: 70%
[3]; [13]
  plant injury at 31 g/ha: 20%
[3]; [14]
  plant injury at 125 g/ha: 80%
[4]; [11]
  Corn plant response rating (crop injury, 0 = no effect, 100 = complete kill) at 31 g/ha: 60%
[4]; [12]
  Corn plant response rating (crop injury, 0 = no effect, 100 = complete kill) at 125 g/ha: 100%
[4]; [13]
  Corn plant response rating (crop injury, 0 = no effect, 100 = complete kill) at 31 g/ha: 40%
[4]; [14]
  Corn plant response rating (crop injury, 0 = no effect, 100 = complete kill) at 125 g/ha: 60%
[5]; [11]
  pest or weed control at 31 g/ha: 90%
[5]; [12]
  pest or weed control at 125 g/ha: 100%
[5]; [13]
  pest or weed control at 31 g/ha: 80%
[5]; [14]
  pest or weed control at 125 g/ha: 100%
[6]; [11]
  pest or weed control at 31 g/ha: 60%
[6]; [12]
  pest or weed control at 125 g/ha: 100%
[6]; [13]
  pest or weed control at 31 g/ha: 10%
[6]; [14]
  pest or weed control at 125 g/ha: 100%
[7]; [15]
  pest or weed control at 62 g/ha: 0%
[7]; [16]
  pest or weed control at 125 g/ha: 0%
[7]; [17]
  pest or weed control at 250 g/ha: 0%
[7]; [18]
  pest or weed control at 31 g/ha: 0%
[8]; [15]
  pest or weed control at 62 g/ha: 0%
[8]; [16]
  pest or weed control at 125 g/ha: 0%
[8]; [17]
  pest or weed control at 250 g/ha: 0%
[8]; [18]
  pest or weed control at 31 g/ha: 0%
[9]; [15]
  pest or weed control at 62 g/ha: 0%
[9]; [16]
  pest or weed control at 125 g/ha: 0%
[9]; [17]
  pest or weed control at 250 g/ha: 0%
[9]; [18]
  pest or weed control at 31 g/ha: 0%
[10]; [15]
  plant injury at 62 g/ha: 0%
[10]; [16]
  plant injury at 125 g/ha: 0%
[10]; [17]
  plant injury at 250 g/ha: 0%
[10]; [18]
  plant injury at 31 g/ha: 0%
